Some test systems named below: SN12C renal; HT29 colon; SNB-19 CNS; UO-31 renal; T-47D breast; HCC-2998 colon; HOP-62 NSCLC; A498 renal; MDA-MB-435; SF-268 CNS.
Common to all, as to test: NCI anticancer screen, dose series, 48 h

Consider ten molecules from PubChem BioAssay (NCI).

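Dose response: 5 concentrations. Exposure: 48 h. Format: 96-well plates. Endpoint: linear interpolation; highest concentration if not reached. The concentration for 50% growth inhibition is given as GI50. TGI: concentration producing complete growth inhibition.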 A value given as a limit tells only on which side of the number the result lay.

`Clc1ccc2c(NCCCN3CCN(c4nc(-n5ccnc5)nc5ccccc45)CC3)ccnc2c1`: the GI50 in the assay on SN12C renal was above 100 µM; with HT29 colon, 1.88 µM; in the assay with SNB-19 CNS it was 2.55 µM; with UO-31 renal, 2.49 µM; with T-47D breast it was above 100 µM; in the assay on HCC-2998 colon it was above 100 µM. In addition, the GI50 is 44.8 µM in the assay on HOP-62 NSCLC, 2.55 µM with A498 renal and 1.74 µM with MDA-MB-435. Further, the TGI was above 100 µM with SN12C renal; 4.47 µM with HT29 colon; 6.49 µM with SNB-19 CNS; above 100 µM with T-47D breast; above 100 µM in the assay with HCC-2998 colon; above 100 µM in the assay with HOP-62 NSCLC. The results for the TGI in the assay on A498 renal and with MDA-MB-435 were above 26.8 µM and 3.2 µM, respectively.
Turning to `CC(=O)N1c2ccccc2C23CCN4CC5=CCOC(O)C(C5CC42)C13` (stereo not drawn), the TGI in the assay with SN12C renal, in the assay on SF-268 CNS, in the assay on HT29 colon, in the assay on SNB-19 CNS, with UO-31 renal and in the assay on T-47D breast was above 100 µM throughout. Moreover, the TGI in the assay on HCC-2998 colon, in the assay on A498 renal and with MDA-MB-435 was above 100 µM each time.
As for `CC1=CC(C)C(O)C(C)/C=C/C(O)C/C=C(/C)C(=O)CC(O)C(C)\C=C/C=C/C=C\C(=O)NC2=C(O)c3cc(C)c(O)c(c3C(=O)C2=O)C1=O` (stereo not drawn), the TGI in the assay on SN12C renal, in the assay with SF-268 CNS, in the assay on HT29 colon, in the assay on SNB-19 CNS, with UO-31 renal and with T-47D breast was above 100 µM throughout. Also, the TGI with HCC-2998 colon, with HOP-62 NSCLC and in the assay on MDA-MB-435 was above 100 µM each time.
Regarding `O=C(NCCNCCO)c1ccc2oc3cc4ccccc4c(=O)n3c2c1`, the GI50 in the assay with SN12C renal is 10.7 µM; in the assay with SF-268 CNS it was 7.42 µM; in the assay on HT29 colon, 16.1 µM; in the assay on SNB-19 CNS it was 14.1 µM; with UO-31 renal, 7.11 µM; with T-47D breast it was 10.2 µM. Further, the GI50 in the assay with HOP-62 NSCLC was 9.6 µM; in the assay on MDA-MB-435, 10.3 µM. The TGI in the assay on SN12C renal was 33 µM; in the assay with SF-268 CNS, 18.5 µM; in the assay with HT29 colon it was above 50 µM; in the assay with SNB-19 CNS it was 40.9 µM; with UO-31 renal it was 16.8 µM; in the assay with T-47D breast, 27.4 µM. The results for the TGI in the assay with HOP-62 NSCLC and with MDA-MB-435 were 25.5 µM and 24.2 µM, respectively.
Consider `NC(C(=O)O)C(N)C(=O)O` (stereo not drawn), for which the TGI with SN12C renal, with SF-268 CNS, in the assay with HT29 colon, with SNB-19 CNS, in the assay with UO-31 renal and in the assay with T-47D breast was above 100 µM in each case. The TGI in the assay with HOP-62 NSCLC and with A498 renal was above 100 µM in each case.
In the case of `CCOC(=O)c1cc(C(=O)c2cc(OC)cc(OC)c2)n2ncccc12`, the GI50 is 4.16 µM in the assay on SN12C renal; 26.5 µM in the assay on SF-268 CNS; 0.403 µM in the assay with HT29 colon; 4.28 µM in the assay with SNB-19 CNS; 5.68 µM with UO-31 renal; 17.2 µM in the assay with T-47D breast. Besides, the GI50 was 14.7 µM in the assay on HCC-2998 colon and 10.2 µM with HOP-62 NSCLC. For the same molecule, the TGI with SN12C renal, with SF-268 CNS, in the assay on HT29 colon, with SNB-19 CNS, in the assay with UO-31 renal and in the assay on T-47D breast was above 100 µM each time. Besides, the TGI with HCC-2998 colon and in the assay on HOP-62 NSCLC was above 100 µM throughout.
Regarding `O=C1/C(=C\c2ccccc2)c2ccccc2N1Cc1ccccc1`, the TGI was determined as 28.9 µM in the assay with SN12C renal; 14.8 µM in the assay with SF-268 CNS; 14.4 µM in the assay with HT29 colon; 15 µM in the assay on SNB-19 CNS; 15.8 µM in the assay with UO-31 renal; 15.1 µM in the assay with T-47D breast. In addition, the TGI in the assay with HCC-2998 colon was 16.4 µM; in the assay with HOP-62 NSCLC, 17.6 µM; in the assay on MDA-MB-435, 16.5 µM.
For `O=C=Nc1ccc(Cc2ccc(N=C=O)cc2)cc1` (tested in a mixture with another compound), the GI50 with SN12C renal, with SF-268 CNS, with HT29 colon, with SNB-19 CNS, with UO-31 renal and in the assay with T-47D breast was above 25 mg/L in each case. Also, the GI50 with HOP-62 NSCLC, in the assay on A498 renal and in the assay with MDA-MB-435 was above 25 mg/L each time. In addition, the TGI with SN12C renal, in the assay with SF-268 CNS, with HT29 colon, with SNB-19 CNS, in the assay on UO-31 renal and in the assay with T-47D breast was above 25 mg/L in each case. The TGI in the assay with HOP-62 NSCLC, with A498 renal and in the assay on MDA-MB-435 was above 25 mg/L each time.
Take `CCOC(=O)c1c(C)c2c(n1C)CSc1cc(S(=O)(=O)c3ccccc3)c(=O)[nH]c1-2`: the GI50 is 27.6 µM in the assay on SN12C renal; 27.8 µM with SF-268 CNS; 16.3 µM in the assay with HT29 colon; 26.9 µM in the assay with SNB-19 CNS; 17.4 µM with UO-31 renal; 10.5 µM in the assay on T-47D breast. Also, the values for the GI50 in the assay on HCC-2998 colon, with HOP-62 NSCLC and with MDA-MB-435 were 35.2 µM, 31.5 µM and 30.8 µM, respectively. The TGI is above 100 µM in the assay with SN12C renal; above 100 µM in the assay with SF-268 CNS; 34.5 µM in the assay with HT29 colon; above 100 µM in the assay on SNB-19 CNS; above 100 µM in the assay on UO-31 renal; 74.7 µM with T-47D breast. Also, the TGI in the assay with HCC-2998 colon is above 100 µM; in the assay on HOP-62 NSCLC, 89.9 µM; with MDA-MB-435, above 100 µM.
For `COc1ccc2[nH]cc(/C=C3\C(=O)Nc4ccccc43)c2c1`, the GI50 with SN12C renal was 7.37 µM; with SF-268 CNS, 5.92 µM; in the assay with HT29 colon it was 3.6 µM; in the assay with SNB-19 CNS, 8.7 µM; with UO-31 renal it was 6.94 µM; in the assay with T-47D breast, 4.91 µM. Further, the GI50 in the assay on HOP-62 NSCLC was 5.18 µM; in the assay on A498 renal, 3.15 µM; in the assay with MDA-MB-435, 2.39 µM. Further, the TGI in the assay on SN12C renal was 39.9 µM; with SF-268 CNS, 29.9 µM; in the assay on HT29 colon, 14.3 µM; with SNB-19 CNS, above 100 µM; in the assay on UO-31 renal it was 32.4 µM; in the assay with T-47D breast, 30.3 µM. Besides, the TGI in the assay on HOP-62 NSCLC was found to be 19.8 µM; with A498 renal, 15.1 µM; with MDA-MB-435, 5.97 µM.
